Laboratory results published in patent US20240269128A1, “COMPOUNDS FOR TREATING OR PREVENTING ALZHEIMER'S DISEASE” (THE UNITED STATES OF AMERICA, as represented by the …, priority 2021, published 2024).

Key:
STAT3 [1] = biological target: T1, STAT3 (Homo sapiens, UniProt P40763); experiment: Western blot of p-STAT3 in tau phosphorylation assay; format: cell-based
T1 construct: endogenous in cells; host or cells: HMC3 (ATCC CRL-3304), 1321N1 (Sigma-Aldrich), SK-N-BE(2)-M17 (ATCC CRL-2267)
Description: Western blot analyses: Samples for western blot analyses were prepared from 3 assays which provided evidence of HCQ-associated rescue (i.e., Ab1-42 clearance, tau phosphorylation, and LPS-induced neuroinflammation). Samples were prepared identically as described above in section: Effect of HCQ on AD-related phenotypes in cell culture, and scaled up to 24-well format to allow for adequate sample volume. After HCQ treatment, cells were washed once with PBS and harvested in 50 μl 50 mM HEPES+2% SDS lysis buffer. The extracts were then boiled at 95° C. for 5 mins. Analytic methods were identical to those described above in Example 4.
Statistical analyses: Statistical analysis was performed using STATA 16.1. Group differences were evaluated using two-sample t-tests (parametric) to calculate differences in p-STAT3 levels between HCQ treated and control samples. We additionally used the Wilcoxon rank-sum test (non-parametric) to confirm that results were robust to distributional assumptions. Significant differences were indicated as p<0.05.

Primary cortical neurons = experiment: Cell death due to trophic factor withdrawal; format: cell-based, mouse; conditions: HCQ 0.25, 2.5 and 25 μM
Description: Cell death due to trophic factor withdrawal: Primary cortical neurons from E18 C57Bl/6 mice were prepared as previously described. On the day of preparation (DIV1), cortical neurons were seeded on poly-D-lysine pre-coated 96-well plates at a density of 3×10^4 cells per well. Every 4-6 days, a half medium exchange using full medium (Neurobasal, 2% B-27, 0.5 mM glutamine, 1% Penicillin-Streptomycin) was carried out. On DIV8, a full medium exchange to B-27 free medium (Neurobasal, 0.5 mM glutamine, 1% Penicillin-Streptomycin) was performed and HCQ (0.25 μM, 2.5 μM and 25 μM) was applied thereafter. […]
YO-PRO™-1 (Invitrogen; Y3603) assay was carried out to detect apoptotic cells in combination with Propidium iodide (PI; P4864 Sigma Aldrich) staining for necrotic cells. […] Plate was measured at the multimode-reader (Cytation 5, BioTek).
MTT solution was added to each well in a final concentration of 0.5 mg/mL. […] Optical density was measured with a Cytation 5 (Biotek) multimode reader at wavelength 570 nm. Values were calculated as percent of control values (vehicle control or lesion control).
The Lactate dehydrogenase (LDH) toxicity assay was carried out on the supernatants collected after treatment using the Cytotoxicity Detection Kit (Roche Diagnostics, Cat. No: 11 644 793 001). […] Absorbance was measured at 492 nm and 620 nm as reference wavelength with a Cytation 5 (Biotek) multimode reader. […]

BV-2 cells = experiment: Aβ1-42 clearance Protonex assay; format: cell-based, mouse; conditions: 25 μM HCQ pretreatment, Protonex Green label
Description: Aβ1-42 clearance-Protonex assay: For Abeta (Aβ1-42) clearance Protonex assay, 5000 BV-2 cells per well (uncoated 96 well plates) were plated out. After changing cells to treatment medium, HCQ (25 μM) was applied 1 hour before stimulation with Protonex™ Green 500, SE (21216, AAT Bioquest) labelled Aβ1-42 (Bachem 4061966; final concentration in well: 200 ng/ml (dilutions in medium)). Cells treated with vehicle and cells treated with Aβ1-42 alone served as controls. After 3 h of Aβ1-42 stimulation, cells were imaged on Cytation 5 multimode reader (Biotek) and green fluorescence was measured.

STAT3 [2] = biological target: STAT3 (Mus musculus, UniProt P42227); experiment: Western blot of total and phosphorylated STAT3 in mouse embryonic cortical neurons; format: cell-based; design: hippocampal homogenate samples across four groups; from tissue; host or cells: acute hippocampal slices from WT and APP/PS1 (APPSwe/PS1dE9) mice; conditions: 50 μM, 48 hours
Description: For primary cultures of embryonic cortical neurons, timed-pregnant mice were obtained from The Jackson Laboratory. Cultures were prepared from embryonic day (E) 14.5 cerebral tissues as described (Zhao et al., Cell Death Differ 2019, 26:1600-1614). Pregnant mice were killed by fast cervical dislocation, embryos and embryo brains were removed, and the cerebral hemisphere was extracted in sterile Hank's balanced saline solution (HBSS). Brain tissues were incubated in 0.25% trypsin-EDTA for 30 min at 37° C.and then transferred to DMEM containing 10% fetal bovine serum (DMEM+). The tissues were transferred to neurobasal (NB) medium containing B27 supplements, 2 mM L-glutamine, antibiotics and antimycotics (Gibco), and 1 mM HEPES and dissociated by trituration using a fire-polished Pasteur pipet. The dissociated cells were seeded into polyethyleneimine-coated plastic culture dishes at a density of 60,000 cells/cm^2 and cultured in the same B27-containing NB medium. Experiments were started 5 days later.
HCQ treatment: Treatment with hydroxychloroquine Sulfate (Selleckchem, Catalog No.S4430) was performed at 50 μM concentration. […]
Statistical analysis: Digitized images were obtained, processed, and quantified with ImageLab version 6.1 (BioRad Laboratories).

STAT3 (Mus musculus, UniProt P42227), sequence (P42227 whole entry): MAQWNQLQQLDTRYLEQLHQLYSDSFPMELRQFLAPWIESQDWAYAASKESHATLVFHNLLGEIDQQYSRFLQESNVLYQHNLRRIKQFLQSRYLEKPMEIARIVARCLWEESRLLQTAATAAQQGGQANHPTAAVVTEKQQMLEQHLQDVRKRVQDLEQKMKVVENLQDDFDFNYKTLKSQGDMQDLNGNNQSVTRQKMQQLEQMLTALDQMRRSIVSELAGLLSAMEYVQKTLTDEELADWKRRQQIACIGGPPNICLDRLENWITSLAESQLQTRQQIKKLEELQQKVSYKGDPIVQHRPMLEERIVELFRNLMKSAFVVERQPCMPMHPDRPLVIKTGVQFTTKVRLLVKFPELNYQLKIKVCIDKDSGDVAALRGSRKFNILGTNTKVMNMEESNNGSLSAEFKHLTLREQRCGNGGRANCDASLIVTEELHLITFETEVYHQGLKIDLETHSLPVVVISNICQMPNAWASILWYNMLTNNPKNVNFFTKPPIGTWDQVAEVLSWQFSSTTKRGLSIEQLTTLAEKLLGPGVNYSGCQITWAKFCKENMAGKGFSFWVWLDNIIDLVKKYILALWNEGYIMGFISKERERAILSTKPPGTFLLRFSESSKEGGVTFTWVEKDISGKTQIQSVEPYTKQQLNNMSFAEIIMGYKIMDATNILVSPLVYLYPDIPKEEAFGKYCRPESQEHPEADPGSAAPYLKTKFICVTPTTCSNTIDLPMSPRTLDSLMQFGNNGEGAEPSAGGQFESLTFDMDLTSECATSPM
T1 sequence (P40763 whole entry): as the sequence (P42227 whole entry) above, with D760E counted along it

p-STAT3 (Tyr705) (STAT3 [1]; 25 μM and 2.5 μM, relative to VC): lowered
p-STAT3 (Ser727) (STAT3 [1]; 25 μM, 2.5 μM and 0.25 μM): lowered
p-STAT3 (Tyr705 and Ser727) (STAT3 [2]): reduced
total STAT3 (STAT3 [2]): without alteration
Compound: CCN(CCO)CCCC(C)Nc1ccnc2cc(Cl)ccc12 (stereo not drawn) [HCQ, hydroxychloroquine]
cell death in response to trophic factor withdrawal (Primary cortical neurons): No effects
microglial uptake of Aβ1-42 into acidic cellular compartments (BV-2 cells): enhances
